According to patent US8859574B2 (IRM LLC, priority 2008, dated 2014):

Molecular target: T1, IGF-1R Ba/F3 (Homo sapiens, UniProt P08069)
T1 construct: fused on or other part: TEL- (or BCR-) IGF-1R in Ba/F3: the kinase part holds the site
Assay: Ba/F3 Cell Viability Inhibition Assay (IGF-1R Ba/F3)
Assay type: cell-based, murine
Conditions: Tel-TK transformed Ba/F3 cells, 48 hours, Britelite luminescence
How it was run: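 IL-3-independent murine Ba/F3 cells transformed with a TEL/BCR-fused IGF-1R kinase were seeded at 3750 cells/well and exposed to serially diluted compound for 48 h at 37 °C. Viability was read by Britelite luminescence. IC50 is the concentration giving 50% of DMSO-control viability, from a logistic fit.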

T1 sequence (P08069 999-1274 limits assumed): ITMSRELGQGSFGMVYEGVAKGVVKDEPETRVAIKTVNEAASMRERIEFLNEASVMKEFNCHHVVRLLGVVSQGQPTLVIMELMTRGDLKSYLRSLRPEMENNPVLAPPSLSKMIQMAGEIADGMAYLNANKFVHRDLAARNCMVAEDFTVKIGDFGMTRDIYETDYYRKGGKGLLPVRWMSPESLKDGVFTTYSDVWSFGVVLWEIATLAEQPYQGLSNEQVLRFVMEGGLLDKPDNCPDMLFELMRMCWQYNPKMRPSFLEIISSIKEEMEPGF

| SMILES | IC50 |
| --- | --- |
| Cc1cc(Nc2nc(Nc3cc(C)c(C4CCN(C(=O)[C@@H]5COCCN5C(C)C)CC4)cc3F)ncc2Cl)n[nH]1 [Compound 126, (S)-(4-(4-(5-chloro-4-(5-methyl-1H-pyrazol-3-ylamino)pyrimidin-2-ylamino)-5-fluoro-2-methylphenyl)piperidin-1-yl)(4-isopropylmorpholin-3-yl)methanone] | 0.029 µM |
| Cc1cc(Nc2nc(Nc3cc(C)c(C4CCN(C(=O)c5oc(C)nc5C)CC4)cc3F)ncc2Cl)n[nH]1 [Compound 127, (4-(4-(5-chloro-4-(5-methyl-1H-pyrazol-3-ylamino)pyrimidin-2-ylamino)-5-fluoro-2-methylphenyl)piperidin-1-yl)(2,4-dimethyloxazol-5-yl)methanone] | 0.027 µM |
| Cc1cc(Nc2nc(Nc3cc(C)c(C4CCN(C(=O)[C@@H]5CC(O)CN5C)CC4)cc3F)ncc2Cl)n[nH]1 (stereo partly drawn) [Compound 128, (4-(4-(5-chloro-4-(5-methyl-1H-pyrazol-3-ylamino)pyrimidin-2-ylamino)-5-fluoro-2-methylphenyl)piperidin-1-yl)((2S)-4-hydroxy-1-methylpyrrolidin-2-yl)methanone] | 0.175 µM |
| Cc1cc(Nc2nc(Nc3cc(C)c(C4CCN(C(=O)c5c(C)nn(C)c5C)CC4)cc3F)ncc2Cl)n[nH]1 [Compound 129, (4-(4-(5-chloro-4-(5-methyl-1H-pyrazol-3-ylamino)pyrimidin-2-ylamino)-5-fluoro-2-methylphenyl)piperidin-1-yl)(1,3,5-trimethyl-1H-pyrazol-4-yl)methanone] | 0.025 µM |
| Cc1cc(Nc2nc(Nc3cc(C)c(C4CCN(C(=O)c5cnn(C)c5C(F)(F)F)CC4)cc3F)ncc2Cl)n[nH]1 [Compound 130, (4-(4-(5-chloro-4-(5-methyl-1H-pyrazol-3-ylamino)pyrimidin-2-ylamino)-5-fluoro-2-methylphenyl)piperidin-1-yl)(1-methyl-5-(trifluoromethyl)-1H-pyrazol-4-yl)methanone] | 0.061 µM |
| Cc1cc(Nc2nc(Nc3cc(C)c(C4CCN(C(=O)C5CNC5)CC4)cc3F)ncc2Cl)n[nH]1 [Compound 131, Azetidin-3-yl(4-(4-(5-chloro-4-(5-methyl-1H-pyrazol-3-ylamino)pyrimidin-2-ylamino)-5-fluoro-2-methylphenyl)piperidin-1-yl)methanone] | 1.25 µM |
| Cc1cc(Nc2nc(Nc3cc(C)c(C4CCN(C(=O)[C@@H]5CCN5)CC4)cc3F)ncc2Cl)n[nH]1 [Compound 132, (S)-azetidin-2-yl(4-(4-(5-chloro-4-(5-methyl-1H-pyrazol-3-ylamino)pyrimidin-2-ylamino)-5-fluoro-2-methylphenyl)piperidin-1-yl)methanone] | 0.161 µM |
| Cc1cc(Nc2nc(Nc3cc(C)c(C4CCN(C(=O)[C@H]5CCCN5C)CC4)cc3C)ncc2Cl)n[nH]1 [Compound 133, (R)-(4-(4-(5-chloro-4-(5-methyl-1H-pyrazol-3-ylamino)pyrimidin-2-ylamino)-2,5-dimethylphenyl)piperidin-1-yl)(1-methylpyrrolidin-2-yl)methanone] | 0.013 µM |
| Cc1cc(Nc2nc(Nc3cc(C)c(C4CCN(C(=O)[C@H]5CCCN5C)CC4)cc3F)ncc2Cl)n[nH]1 [Compound 134, (R)-(4-(4-(5-chloro-4-(5-methyl-1H-pyrazol-3-ylamino)pyrimidin-2-ylamino)-5-fluoro-2-methylphenyl)piperidin-1-yl)(1-methylpyrrolidin-2-yl)methanone] | 0.021 µM |
| Cc1cc(Nc2nc(Nc3cc(C)c(C4CCN(C(=O)[C@H]5CCCN5C(C)C)CC4)cc3F)ncc2Cl)n[nH]1 [Compound 135, (R)-(4-(4-(5-chloro-4-(5-methyl-1H-pyrazol-3-ylamino)pyrimidin-2-ylamino)-5-fluoro-2-methylphenyl)piperidin-1-yl)(1-isopropylpyrrolidin-2-yl)methanone] | 0.048 µM |
